Laboratory results reported in PubChem BioAssay (NCI).
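Step 1: Grow cells in 96-well plates. Step 2: Expose to compound for 48 hours at 5 concentrations. Step 3: Interpolate endpoints linearly; if unreached, use highest concentration. At the TGI there is no net growth.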

Columns and labels:
Test in all cases: inhibition of tumour cell growth, NCI panel, 48 h
SK-MEL-2 melanoma = tested on: SK-MEL-2 melanoma
SK-MEL-28 melanoma = tested on: SK-MEL-28 melanoma
SF-295 CNS = tested on: SF-295 CNS
SK-OV-3 ovarian = tested on: SK-OV-3 ovarian
CAKI-1 renal = tested on: CAKI-1 renal
BT-549 breast = tested on: BT-549 breast
T-47D breast = tested on: T-47D breast
SR leukemia = tested on: SR leukemia
M14 melanoma = tested on: M14 melanoma
SW-620 colon = tested on: SW-620 colon
HT29 colon = tested on: HT29 colon
OVCAR-3 ovarian = tested on: OVCAR-3 ovarian
A549 NSCLC = tested on: A549 NSCLC
K-562 leukemia = tested on: K-562 leukemia
UACC-257 melanoma = tested on: UACC-257 melanoma
OVCAR-5 ovarian = tested on: OVCAR-5 ovarian
A498 renal = tested on: A498 renal
NCI-H460 lung = tested on: NCI-H460 lung
UACC-62 melanoma = tested on: UACC-62 melanoma
MALME-3M melanoma = tested on: MALME-3M melanoma
SF-268 CNS = tested on: SF-268 CNS
PC-3 prostate = tested on: PC-3 prostate
786-0 renal = tested on: 786-0 renal
MDA-MB-231 breast = tested on: MDA-MB-231 breast
NCI-H23 lung = tested on: NCI-H23 lung
MDA-N = tested on: MDA-N
HCT-116 colon = tested on: HCT-116 colon
HOP-62 NSCLC = tested on: HOP-62 NSCLC
HL-60(TB) leukemia = tested on: HL-60(TB) leukemia
EKVX NSCLC = tested on: EKVX NSCLC
MOLT-4 leukemia = tested on: MOLT-4 leukemia
MCF7 breast = tested on: MCF7 breast
NCI-H226 lung = tested on: NCI-H226 lung
CCRF-CEM leukemia = tested on: CCRF-CEM leukemia
SN12C renal = tested on: SN12C renal
NCI-H522 lung = tested on: NCI-H522 lung
SF-539 CNS = tested on: SF-539 CNS
HS 578T breast = tested on: HS 578T breast
UO-31 renal = tested on: UO-31 renal
SNB-75 CNS = tested on: SNB-75 CNS
RPMI-8226 leukemia = tested on: RPMI-8226 leukemia
LOX IMVI melanoma = tested on: LOX IMVI melanoma
HOP-92 NSCLC = tested on: HOP-92 NSCLC
HCT-15 colon = tested on: HCT-15 colon
TK-10 renal = tested on: TK-10 renal
OVCAR-8 ovarian = tested on: OVCAR-8 ovarian
SK-MEL-5 melanoma = tested on: SK-MEL-5 melanoma
IGROV1 ovarian = tested on: IGROV1 ovarian
DU-145 prostate = tested on: DU-145 prostate
COLO 205 colon = tested on: COLO 205 colon
SNB-19 CNS = tested on: SNB-19 CNS
HCC-2998 colon = tested on: HCC-2998 colon
MDA-MB-435 = tested on: MDA-MB-435
KM12 colon = tested on: KM12 colon
OVCAR-4 ovarian = tested on: OVCAR-4 ovarian
U251 CNS = tested on: U251 CNS
NCI/ADR-RES ovarian = tested on: NCI/ADR-RES ovarian
RXF 393 renal = tested on: RXF 393 renal
ACHN renal = tested on: ACHN renal
LXFL 529 NSCLC = tested on: LXFL 529 NSCLC
DMS 114 small cell lung = tested on: DMS 114 small cell lung
M19-MEL melanoma = tested on: M19-MEL melanoma
DMS 273 small cell lung = tested on: DMS 273 small cell lung
XF 498 CNS = tested on: XF 498 CNS
SNB-78 CNS = tested on: SNB-78 CNS
KM20L2 colon = tested on: KM20L2 colon
DLD-1 colon = tested on: DLD-1 colon

For CN(Cc1cnc2nc(N)nc(N)c2n1)c1ccc(C(=O)NCCCC(=O)O)cc1, the TGI (SK-MEL-2 melanoma) was > 100 µM, the TGI (SK-MEL-28 melanoma) was > 100 µM and the TGI (SF-295 CNS) was > 100 µM. For the same molecule, the TGI (SK-OV-3 ovarian) was > 100 µM, the TGI (CAKI-1 renal) was > 100 µM and the TGI (BT-549 breast) was > 100 µM. The TGI (T-47D breast) was > 100 µM, the TGI (SR leukemia) was > 100 µM and the TGI (M14 melanoma) was > 100 µM. The TGI (SW-620 colon) was > 100 µM, the TGI (HT29 colon) was > 100 µM and the TGI (OVCAR-3 ovarian) was > 100 µM. For the same molecule, the TGI (A549 NSCLC) was > 100 µM, the TGI (K-562 leukemia) was > 100 µM and the TGI (UACC-257 melanoma) was > 100 µM. The TGI (OVCAR-5 ovarian) was > 100 µM, the TGI (A498 renal) was > 100 µM and the TGI (NCI-H460 lung) was > 100 µM. The TGI (UACC-62 melanoma) was > 100 µM, the TGI (MALME-3M melanoma) was > 100 µM and the TGI (SF-268 CNS) was > 100 µM. For the same molecule, the TGI (PC-3 prostate) was > 100 µM, the TGI (786-0 renal) was > 100 µM and the TGI (MDA-MB-231 breast) was > 100 µM. The TGI (NCI-H23 lung) was > 100 µM, the TGI (MDA-N) was > 100 µM and the TGI (HCT-116 colon) was > 100 µM. The TGI (HOP-62 NSCLC) was > 100 µM, the TGI (HL-60(TB) leukemia) was > 100 µM and the TGI (EKVX NSCLC) was > 100 µM. The TGI (MOLT-4 leukemia) was > 100 µM, the TGI (MCF7 breast) was > 100 µM and the TGI (NCI-H226 lung) was > 100 µM. For the same molecule, the TGI (CCRF-CEM leukemia) was > 100 µM, the TGI (SN12C renal) was > 100 µM and the TGI (NCI-H522 lung) was > 100 µM. The TGI (SF-539 CNS) was > 100 µM, the TGI (HS 578T breast) was > 100 µM and the TGI (UO-31 renal) was > 100 µM. For the same molecule, the TGI (SNB-75 CNS) was > 100 µM, the TGI (RPMI-8226 leukemia) was > 100 µM and the TGI (LOX IMVI melanoma) was > 100 µM. For the same molecule, the TGI (HOP-92 NSCLC) was > 100 µM, the TGI (HCT-15 colon) was > 100 µM and the TGI (TK-10 renal) was > 100 µM. For the same molecule, the TGI (OVCAR-8 ovarian) was > 100 µM, the TGI (SK-MEL-5 melanoma) was > 100 µM and the TGI (IGROV1 ovarian) was > 100 µM. For the same molecule, the TGI (DU-145 prostate) was > 100 µM, the TGI (COLO 205 colon) was > 100 µM and the TGI (SNB-19 CNS) was > 100 µM. The TGI (HCC-2998 colon) was > 100 µM, the TGI (MDA-MB-435) was > 100 µM and the TGI (KM12 colon) was > 100 µM. The TGI (OVCAR-4 ovarian) was > 100 µM, the TGI (U251 CNS) was > 100 µM and the TGI (NCI/ADR-RES ovarian) was > 100 µM. For the same molecule, the TGI (RXF 393 renal) was > 100 µM and the TGI (ACHN renal) was > 71.2 µM.
In the case of O=c1n(CC2CS2)c2ccccc2n1CC1CS1 (centres undefined), the TGI (SK-MEL-2 melanoma) is reported as > 100 µM, the TGI (LXFL 529 NSCLC) is reported as > 100 µM and the TGI (SK-OV-3 ovarian) is reported as > 100 µM. The TGI (CAKI-1 renal) was > 100 µM, the TGI (DMS 114 small cell lung) was > 100 µM and the TGI (SR leukemia) was > 100 µM. For the same molecule, the TGI (M14 melanoma) was > 100 µM, the TGI (OVCAR-3 ovarian) was > 100 µM and the TGI (K-562 leukemia) was > 100 µM. For the same molecule, the TGI (M19-MEL melanoma) was > 100 µM, the TGI (DMS 273 small cell lung) was > 100 µM and the TGI (UACC-62 melanoma) was > 100 µM. The TGI (MALME-3M melanoma) was 74.4 µM, the TGI (SF-268 CNS) was > 100 µM and the TGI (HCT-116 colon) was 70.1 µM. For the same molecule, the TGI (HOP-62 NSCLC) was > 100 µM, the TGI (HL-60(TB) leukemia) was > 100 µM and the TGI (EKVX NSCLC) was > 100 µM. For the same molecule, the TGI (MOLT-4 leukemia) was 69.1 µM, the TGI (CCRF-CEM leukemia) was 79.7 µM and the TGI (SN12C renal) was > 100 µM. For the same molecule, the TGI (NCI-H522 lung) was > 100 µM, the TGI (SNB-75 CNS) was > 100 µM and the TGI (RPMI-8226 leukemia) was 88.6 µM. The TGI (LOX IMVI melanoma) was > 100 µM, the TGI (HOP-92 NSCLC) was > 100 µM and the TGI (HCT-15 colon) was > 100 µM. For the same molecule, the TGI (IGROV1 ovarian) was > 100 µM, the TGI (COLO 205 colon) was > 100 µM and the TGI (HCC-2998 colon) was > 100 µM. The TGI (KM12 colon) was > 100 µM, the TGI (XF 498 CNS) was > 100 µM and the TGI (OVCAR-4 ovarian) was > 100 µM. The TGI (ACHN renal) was > 100 µM.
In the case of Cc1cc(C)nc(NS(=O)(=O)c2ccc(NC(=O)COC(=O)c3cccc4c(=O)c5ccccc5[nH]c34)cc2)n1, the TGI (LXFL 529 NSCLC) is reported as > 100 µM, the TGI (SK-MEL-28 melanoma) is reported as > 100 µM and the TGI (SF-295 CNS) is reported as 95.5 µM. For the same molecule, the TGI (SK-OV-3 ovarian) was > 100 µM, the TGI (CAKI-1 renal) was > 100 µM and the TGI (DMS 114 small cell lung) was > 100 µM. The TGI (SR leukemia) was 76.4 µM, the TGI (M14 melanoma) was > 100 µM and the TGI (SW-620 colon) was 83.9 µM. For the same molecule, the TGI (HT29 colon) was > 100 µM, the TGI (OVCAR-3 ovarian) was 51.4 µM and the TGI (A549 NSCLC) was > 100 µM. It also gave a TGI (K-562 leukemia) of 98.8 µM, a TGI (UACC-257 melanoma) of 65.1 µM and a TGI (OVCAR-5 ovarian) of 58.9 µM. For the same molecule, the TGI (A498 renal) was > 100 µM, the TGI (M19-MEL melanoma) was 42.1 µM and the TGI (DMS 273 small cell lung) was > 100 µM. The TGI (NCI-H460 lung) was > 100 µM, the TGI (UACC-62 melanoma) was 34.3 µM and the TGI (MALME-3M melanoma) was 73 µM. The TGI (SF-268 CNS) was > 100 µM, the TGI (786-0 renal) was 58.9 µM and the TGI (NCI-H23 lung) was > 100 µM. For the same molecule, the TGI (SNB-78 CNS) was > 100 µM, the TGI (HCT-116 colon) was 55 µM and the TGI (KM20L2 colon) was > 100 µM. For the same molecule, the TGI (HOP-62 NSCLC) was 47.4 µM, the TGI (HL-60(TB) leukemia) was 63.9 µM and the TGI (EKVX NSCLC) was > 100 µM. The TGI (MOLT-4 leukemia) was 84.8 µM, the TGI (NCI-H226 lung) was > 100 µM and the TGI (CCRF-CEM leukemia) was 87.7 µM. The TGI (SN12C renal) was > 100 µM, the TGI (NCI-H522 lung) was 70.9 µM and the TGI (SF-539 CNS) was 34 µM. For the same molecule, the TGI (UO-31 renal) was > 100 µM, the TGI (SNB-75 CNS) was 73.5 µM and the TGI (RPMI-8226 leukemia) was > 100 µM. The TGI (LOX IMVI melanoma) was 40.7 µM, the TGI (HOP-92 NSCLC) was 60.3 µM and the TGI (HCT-15 colon) was > 100 µM. The TGI (TK-10 renal) was > 100 µM, the TGI (OVCAR-8 ovarian) was > 100 µM and the TGI (SK-MEL-5 melanoma) was > 100 µM. The TGI (IGROV1 ovarian) was > 100 µM, the TGI (DLD-1 colon) was > 100 µM and the TGI (COLO 205 colon) was > 100 µM. It also gave a TGI (SNB-19 CNS) of 77.2 µM, a TGI (HCC-2998 colon) of 37.9 µM and a TGI (KM12 colon) of 38.8 µM. For the same molecule, the TGI (XF 498 CNS) was > 100 µM, the TGI (OVCAR-4 ovarian) was > 100 µM and the TGI (U251 CNS) was 38.4 µM. For the same molecule, the TGI (RXF 393 renal) was 74.5 µM and the TGI (ACHN renal) was > 100 µM.
